Test results published in patent US9290453B2 (Merck Sharp & Dohme Corp., priority 2010, dated 2016).

Target: T1, hCRTH2 (Homo sapiens, UniProt Q9Y5Y4)
T1 construct: expressed in transfected cells; host or cells: HEK (human embryonic kidney) cells expressing hCRTH2
T1 sequence (Q9Y5Y4 1-395): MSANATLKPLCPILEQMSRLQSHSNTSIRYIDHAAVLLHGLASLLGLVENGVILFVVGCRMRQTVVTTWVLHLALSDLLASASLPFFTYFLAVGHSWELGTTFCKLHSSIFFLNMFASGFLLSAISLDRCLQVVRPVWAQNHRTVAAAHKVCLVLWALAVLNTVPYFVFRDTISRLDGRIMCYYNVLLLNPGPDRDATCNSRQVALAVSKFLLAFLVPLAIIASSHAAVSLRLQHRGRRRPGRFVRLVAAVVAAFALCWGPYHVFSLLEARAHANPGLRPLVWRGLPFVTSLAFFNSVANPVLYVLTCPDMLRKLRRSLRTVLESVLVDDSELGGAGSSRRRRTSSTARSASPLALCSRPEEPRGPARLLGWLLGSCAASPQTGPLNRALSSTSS
Assay: Radioligand Binding Assay A ([3H]PGD2 filtration binding, HEK-hCRTH2 membranes)
Method: Radioligand binding assays were performed at room temperature in 50 mM Tris-HCl pH 7.4, 1 mM EDTA containing 2 mM MnCl2 and 3.0 nM [^3H]PGD2 (New England Nuclear, Boston, Mass.) (171 Ci mmol^−1), in a final volume of 0.2 ml. Competing ligands were diluted in dimethylsulfoxide (Me2SO) that was kept constant at 1% (v/v) of the final incubation volume. The reaction was initiated by the addition of 8-20 μg of membrane protein prepared from a human embryonic kidney (HEK)-hCRTH2 cell line. Total and non-specific binding were determined in the absence and the presence of 10 μM PGD2, respectively. Under these conditions, specific binding (total minus non-specific) of the radioligand to the receptor reached equilibrium within 50 min and was stable up to 180 min. The reaction was routinely conducted for 60 min at room temperature and terminated by rapid filtration through prewetted (0.3% polyethyleneimine) 96-well printed Filtermate™ (Wallac) using a Tomtec® harvester (Hamden, Conn.). After washing with cold buffer, the filter was dried for 2 minutes in microwave, and Meltilex Scintillator sheet (Wallac) was melted on for 2 min. The radioactivity was measured with Betaplate model 1205 (Wallac).

O=C(O)CCCCc1cc2cc(C(=O)N[C@H]3CCc4ccccc43)ccc2nc1-c1ccc(F)cc1 [Compound 5K, 6-[[(2,3-dihydro-1H-inden-1(S)-yl)amino]carbonyl]-2-(4-fluorophenyl)-3-quinolinepentanoic acid]
Ki (Table A, rated A-D): 2.1 to 20 nM

O=C(O)CCCCc1cc2cc(C(=O)N[C@H]3CCc4ccc(F)cc43)ccc2nc1-c1ccc(F)cc1 [Compound 5L, 6-[[(6-fluoro-2,3-dihydro-1H-inden-1(S)-yl)amino]carbonyl]-2-(4-fluorophenyl)-3-quinolinepentanoic acid]
Ki (Table A, rated A-D): 2.1 to 20 nM

O=C(O)CCCCc1cc2cc(C(=O)N[C@H]3CCCc4ccccc43)ccc2nc1-c1ccc(F)cc1 [Compound 5M, 2-(4-fluorophenyl)-6-[[(1,2,3,4-tetrahydro-1(S)-naphthalenyl)amino]carbonyl]-3-quinolinepentanoic acid]
Ki (Table A, rated A-D): 2.1 to 20 nM

O=C(O)CCCCc1cc2cc(C(=O)N[C@H]3CCCc4ccc(F)cc43)ccc2nc1-c1ccc(F)cc1 [Compound 5N, 2-(4-fluorophenyl)-6-[[(7-fluoro-1,2,3,4-tetrahydro-1(S)-naphthalenyl)amino]carbonyl]-3-quinolinepentanoic acid]
Ki (Table A, rated A-D): 20.1 to 200 nM | Ki (values in text): 25.5 nM

O=C(O)CCCCc1cc2cc(C(=O)N[C@@H]3CCCc4cc(Cl)ccc43)ccc2nc1-c1ccc(F)cc1 [Compound 5P, 6-[[(6-chloro-1,2,3,4-tetrahydro-1(R)-naphthalenyl)amino]carbonyl]-2-(4-fluorophenyl)-3-quinolinepentanoic acid]
Ki (Table A, rated A-D): 2.1 to 20 nM

N#Cc1ccc([C@@H](NC(=O)c2ccc3nc(-c4ccc(F)cc4)c(CCCCC(=O)O)cc3c2)C(F)(F)F)cc1 [Compound 5Q, 6-[[[1(R)-(4-cyanophenyl)-2,2,2-trifluoroethyl]amino]carbonyl]-2-(4-fluorophenyl)-3-quinolinepentanoic acid]
Ki (Table A, rated A-D): 2.1 to 20 nM

O=C(O)CCCCc1cc2cc(C(=O)N[C@H]3CCc4cc(Cl)ccc43)ccc2nc1-c1ccc(F)cc1 [Compound 5R, 6-[[(5-chloro-2,3-dihydro-1H-inden-1(S)-yl)amino]carbonyl]-2-(4-fluorophenyl)-3-quinolinepentanoic acid]
Ki (Table A, rated A-D): 2.1 to 20 nM

O=C(O)CCCCc1cc2cc(C(=O)N[C@H]3CCCc4cc(Cl)ccc43)ccc2nc1-c1ccc(F)cc1 [Compound 5S, 6-[[(6-chloro-1,2,3,4-tetrahydro-1(S)-naphthalenyl)amino]carbonyl]-2-(4-fluorophenyl)-3-quinolinepentanoic acid]
Ki (Table A, rated A-D): 2.1 to 20 nM

N#Cc1ccc([C@H](NC(=O)c2ccc3nc(-c4ccc(F)cc4)c(CCCCC(=O)O)cc3c2)C(F)(F)F)cc1 [Compound 5T]
Ki (Table A, rated A-D): 20.1 to 200 nM

CN(Cc1ccc(Cl)cc1)C(=O)c1ccc2nc(-c3ccc(F)cc3)c(CCCCC(=O)O)cc2c1 [Compound 5U, 6-[[[(4-chlorophenyl)methyl]methylamino]carbonyl]-2-(4-fluorophenyl)-3-quinolinepentanoic acid]
Ki (Table A, rated A-D): 2.1 to 20 nM

CN(Cc1ccc(C(F)(F)F)cc1)C(=O)c1ccc2nc(-c3ccc(F)cc3)c(CCCCC(=O)O)cc2c1 [Compound 5V, 2-(4-fluorophenyl)-6-[[methyl[[4-(trifluoromethyl)phenyl]methyl]amino]carbonyl]-3-quinolinepentanoic acid]
Ki (Table A, rated A-D): 2.1 to 20 nM

CN(Cc1cccc(C(F)(F)F)c1)C(=O)c1ccc2nc(-c3ccc(F)cc3)c(CCCCC(=O)O)cc2c1 [Compound 5W, 2-(4-fluorophenyl)-6-[[methyl[[3-(trifluoromethyl)phenyl]methyl]amino]carbonyl]-3-quinolinepentanoic acid]
Ki (Table A, rated A-D): 20.1 to 200 nM

C[C@@H](NC(=O)c1ccc2nc(-c3ccc(F)cc3)c(CCCCC(=O)O)cc2c1)c1cc(Cl)cc(Cl)c1 [Compound 5X, 6-[[[1(R)-(3,5-dichlorophenyl)ethyl]amino]carbonyl]-2-(4-fluorophenyl)-3-quinolinepentanoic acid]
Ki (Table A, rated A-D): 2.1 to 20 nM | Ki (values in text): 5.4 nM

C[C@H](NC(=O)c1ccc2nc(-c3ccc(F)cc3)c(CCCCC(=O)O)cc2c1)c1cc(Cl)cc(Cl)c1 [Compound 5Y, 6-[[[1(S)-(3,5-dichlorophenyl)ethyl]amino]carbonyl]-2-(4-fluorophenyl)-3-quinolinepentanoic acid]
Ki (Table A, rated A-D): 2.1 to 20 nM

C[C@H](NC(=O)c1ccc2nc(-c3ccc(F)cc3)c(CCCCC(=O)O)cc2c1)c1ccc(Cl)cc1 [Compound 5i]
Ki (Table A, rated A-D): 2.1 to 20 nM

O=C(O)CCCCc1cc2cc(C(=O)N[C@@H]3CCc4cc(Cl)ccc43)ccc2nc1-c1ccc(F)cc1 [Compound 5o, 6-[[(5-chloro-2,3-dihydro-1H-inden-1(R)-yl)amino]carbonyl)-2-(4-fluorophenyl)-3-quinolinepentanoic acid]
Ki (Table A, rated A-D): 2.1 to 20 nM | Ki (values in text): 2.7 nM

C[C@@H](NC(=O)c1cnc2nc(-c3ccc(F)cc3)c(CCCCC(=O)O)cc2c1)c1ccc(Cl)cc1 [Compound 6, 6-[[[1(R)-(4-chlorophenyl)ethyl]amino]carbonyl]-2-(4-fluorophenyl)-1,8-naphthyridine-3-pentanoic acid]
Ki (Table A, rated A-D): 20.1 to 200 nM

C[C@@H](NC(=O)c1cnc2nc(-c3ccc(F)cc3)c(CCCCC(=O)O)cc2c1)c1ccc(F)cc1 [Compound 6D, 2-(4-fluorophenyl)-6-[[[1(R)-(4-fluorophenyl)ethyl]amino]carbonyl]-1,8-naphthyridine-3-pentanoic acid]
Ki (Table A, rated A-D): 20.1 to 200 nM

O=C(O)CCCCc1cc2cc(C(=O)N[C@@H]3CCc4cc(Cl)ccc43)cnc2nc1-c1ccc(F)cc1 [Compound 6E, 6-[[(5-chloro-2,3-dihydro-1H-inden-1(R)-yl)amino]carbonyl]-2-(4-fluorophenyl)-1,8-naphthyridine-3-pentanoic acid]
Ki (Table A, rated A-D): 2.1 to 20 nM

O=C(O)CCCCc1cc2cc(C(=O)N[C@@H]3CCc4ccc(F)cc43)cnc2nc1-c1ccc(F)cc1 [Compound 6F, 6-[[(6-fluoro-2,3-dihydro-1H-inden-1(R)-yl)amino]carbonyl]-2-(4-fluorophenyl)-1,8-naphthyridine-3-pentanoic acid]
Ki (Table A, rated A-D): 20.1 to 200 nM

O=C(O)CCCCc1cc2cc(C(=O)N[C@@H]3CCCc4cc(Cl)ccc43)cnc2nc1-c1ccc(F)cc1 [Compound 6G, 6-[[(6-chloro-1,2,3,4-tetrahydro-1(R)-naphthalenyl)amino)carbonyl]-2-(4-fluorophenyl)-1,8-naphthyridine-3-pentanoic acid]
Ki (Table A, rated A-D): 2.1 to 20 nM | Ki (values in text): 6.3 nM

O=C(O)CCCCc1cc2cc(C(=O)N[C@@H]3CCCc4ccc(F)cc43)cnc2nc1-c1ccc(F)cc1 [Compound 6H, 2-(4-fluorophenyl)-6-[[(7-fluoro-1,2,3,4-tetrahydro-1(R)-naphthalenyl)amino]carbonyl]-1,8-naphthyridine-3-pentanoic acid]
Ki (Table A, rated A-D): 20.1 to 200 nM | Ki (values in text): 161 nM

C[C@H](NC(=O)c1cnc2nc(-c3ccc(F)cc3)c(CCCCC(=O)O)cc2c1)c1ccc(Cl)cc1 [Compound 6J, 6-[[[1(S)-(4-chlorophenyl)ethyl]amino]carbonyl]-2-(4-fluorophenyl)-1,8-naphthyridine-3-pentanoic acid]
Ki (Table A, rated A-D): 20.1 to 200 nM

C[C@H](NC(=O)c1cnc2nc(-c3ccc(F)cc3)c(CCCCC(=O)O)cc2c1)c1ccc(F)cc1 [Compound 6K, 2-(4-fluorophenyl)-6-[[[1(S)-(4-fluorophenyl)ethyl]amino]carbonyl]-1,8-naphthyridine-3-pentanoic acid]
Ki (Table A, rated A-D): 20.1 to 200 nM
